# Measured values taken from patent EP1674457B1, “Derivatives of squaric acid with anti-proliferative activity” (GPC Biotech AG, priority 2004, dated 2006).
# What was measured:
# MCF7 [1] = test: SRB assay, inhibition of tumor cell growth at 1 µM (Example 61); assay type: cell-based; details: Homo sapiens, 48 hours
# Description: (§1) 3,000-15,000 cells/well were exposed to the test compounds at a concentration of 1 µM for 48 hours, and cytotoxicty was measured using the SRB assay according to Shekan et al (J Natl Cancer Inst (1990) 82, 1107-112). Briefly, cells were plated in 96 well dishes 24 hours prior to compound addition. The assay was terminated with the addition of cold TCA to a final concentration of 10% and the plates were incubated for one hour at 4°C. The plates were then washed 5 times with water and 100µl of a Sulforhodamine B solution (4%) was added to each well. The plate was then incubated for 10 minutes at room temperature before removal of unbound dye by washing with 1% acetic acid. The bound dye was solubilized with 10 mM Trizma base and the absorbance read at OD570. Inhibitory activity of the compounds was calculated as % inhibition compared to cells treated with the solvent (DMSO). Table 2 represents the growth inhibitory activity of certain compunds of the invention across a number of tumor cell lines.
# SW-620 [2] = test: as above; assay type: cell-based; details: Homo sapiens, 48 hours
# Description: as §1
# A-549 [3] = test: as above; assay type: cell-based; details: Homo sapiens, A549, 48 hours
# Description: as §1
# PC-3 [4] = test: as above; assay type: cell-based; details: Homo sapiens, 48 hours
# Description: as §1
# HCT-116 [5] = test: as above; assay type: cell-based; details: Homo sapiens, 48 hours
# Description: as §1
# A2780 [6] = test: IC50 determination by SRB assay (Example 62); assay type: cell-based; details: Homo sapiens
# Description: as §1
# (§2) The assay was performed similar to example 61. However, test compounds were added at various concentrations, such as from 0.001 to about 0.1 µM, from 0.1 to about 10 µM, or from 1 to about 10 µM, as the need may be, in order to estimate the IC50 values. IC50 values were determined by plotting the percentage inhibitory activity for each concentration, fitting a curve using appropriate software and estimating the concentration at which 50% inhibition of growth would occur.
# PC-3 [7] = test: IC50 determination by SRB assay (Example 62); assay type: cell-based; details: Homo sapiens
# Description: as §1, §2
# HCT-116 [8] = test: IC50 determination by SRB assay (Example 62); assay type: cell-based; details: Homo sapiens, HCT-116; HCY-116
# Description: as §1, §2
# A2780 [9] = test: SRB assay, inhibition of tumor cell growth at 1 µM (Example 61); assay type: cell-based, Human; details: Homo sapiens, 48 hours
# Description: as §1
# MCF7 [10] = test: IC50 determination by SRB assay (Example 62); assay type: cell-based; details: Homo sapiens
# Description: as §1, §2
# SW-620 [11] = test: IC50 determination by SRB assay (Example 62); assay type: cell-based; details: Homo sapiens
# Description: as §1, §2
# A-549 [12] = test: IC50 determination by SRB assay (Example 62); assay type: cell-based; details: Homo sapiens, A549
# Description: as §1, §2
SMILES,IC50 (A2780 [6]) [nM],IC50 (PC-3 [7]) [nM],IC50 (HCT-116 [8]) [nM],IC50 (MCF7 [10]) [nM],IC50 (SW-620 [11]) [nM],IC50 (A-549 [12]) [nM],inhibition at 1 µM (MCF7 [1]) [%],inhibition at 1 µM (SW-620 [2]) [%],inhibition at 1 µM (A-549 [3]) [%],inhibition at 1 µM (PC-3 [4]) [%],inhibition at 1 µM (HCT-116 [5]) [%],inhibition at 1 µM (A2780 [9]) [%]
"O=c1c(NCCCCCCOc2cccnc2)c(Nc2ccncc2)c1=O [SQ-16, 3-(Pyridin-4-ylamino)-4-[6-(pyridin-3-yloxy)-hexylamino]-cyclobut-3-ene-1,2-dione]",< 100,< 500,< 500,–,–,–,> 5,> 20,> 20,> 20,> 80,> 80
Cc1ccc(OCCCCCCNc2c(Nc3cccnc3)c(=O)c2=O)cc1 [SQ-4],–,–,< 100,< 10000,< 2000,< 500,–,> 50,> 50,> 50,> 80,> 80
"O=c1c(NCCC2CCN(Cc3ccccc3)CC2)c(Nc2ccncc2)c1=O [SQ-38, 3-[2-(1-Benzylpiperidin-4-yl)-ethylamino]-4-(pyridin4-yl-amino)-cyclobut-3-ene-1,2-dione]",< 10000,< 10000,< 10000,–,–,–,–,–,–,–,–,–
"O=c1c(NCc2cccc(COc3ccc(Cl)cc3)c2)c(Nc2cccnc2)c1=O [SQ-35, 3-[3-(4-Chlorophenoxymethyl)-benzylamino]-4-(pyridin-3-yl-amino)-cyclobut-3-ene-1,2-dione]",< 10000,> 10000,< 10000,–,–,–,–,–,–,–,–,–
O=c1c(NCCCCCCOc2ccccc2)c(Nc2cccnc2)c1=O [SQ-3],–,–,< 100,< 10000,< 500,< 500,> 5,> 50,> 50,> 50,> 80,> 80
"O=c1c(NCCc2ccc(Oc3ccc(Cl)cc3)cc2)c(Nc2ccncc2)c1=O [SQ-20, 3-{2-[4-(4-Chlorophenoxy)-phenyl]-ethylamino}-4-(pyridin-4-yl-amino)-cyclobut-3-ene-1,2-dione]",< 20,< 500,< 100,–,–,–,–,–,–,–,–,–
"O=c1c(NCCCCCCSc2ccc(Cl)cc2)c(Nc2ccncc2)c1=O [SQ-27, 3-[6-(4-Chlorophenylsulfanyl)-hexylamino]-4-(pyridin-4-yl-amino)-cyclobut-3-ene-1,2-dione]",–,–,< 100,–,< 500,< 2000,> 20,> 20,> 50,> 50,> 80,> 80

# Further lines, with some results ahead:
IC50 (A2780 [6]) [nM],IC50 (PC-3 [7]) [nM],IC50 (HCT-116 [8]) [nM],IC50 (MCF7 [10]) [nM],IC50 (SW-620 [11]) [nM],IC50 (A-549 [12]) [nM],SMILES,inhibition at 1 µM (MCF7 [1]) [%],inhibition at 1 µM (SW-620 [2]) [%],inhibition at 1 µM (A-549 [3]) [%],inhibition at 1 µM (PC-3 [4]) [%],inhibition at 1 µM (HCT-116 [5]) [%],inhibition at 1 µM (A2780 [9]) [%]
< 20,< 100,< 20,–,< 2000,< 100,"O=c1c(NCCCCCCOc2ccc(OCCN3CCOCC3)cc2)c(Nc2cccnc2)c1=O [SQ-24, 3-[6-(4-(2-Morpholin-4-yl-ethoxy)-phenoxy)-hexylamino]-4-(pyridin-3-yl-amino)-cyclobut-3-ene-1,2-dione]",> 20,> 20,> 50,> 50,> 80,> 80
< 20,< 20,< 20,< 500,–,< 20,"O=c1c(NCCCCCCOc2ccc(OCCN3CCOCC3)cc2)c(Nc2ccncc2)c1=O [SQ-23, 3-[6-(4-(2-Morpholin-4-yl-ethoxy)-phenoxy)-hexylamino]-4-(pyridin-4-yl-amino)-cyclobut-3-ene-1,2-dione]",–,> 20,> 50,> 50,> 80,> 80
< 20,< 100,< 20,–,–,–,"O=c1c(NCCCCCCOc2ccc(CN3CCOCC3)cc2)c(Nc2cccnc2)c1=O [SQ-39, 3-(6-[4-(Morpholinomethyl)-phenoxy]-hexylamino)-4-(pyridin-3-yl-amino)-3-cyclobutene-1,2-dione]",> 5,> 20,> 50,> 20,> 80,> 80
< 20,–,< 20,< 10000,–,< 2000,"O=c1c(NCCCCCCOc2ccccc2)c(Nc2ccncc2)c1=O [SQ-12, 3-(6-Phenoxyhexylamino)-4-(pyridin-4y1-amino)-3-cyclobutene-1,2-dione]",> 20,> 20,> 50,> 50,> 80,> 80
< 20,< 20,< 20,–,–,–,"O=c1c(NCCCCCCCc2ccccc2)c(Nc2ccncc2)c1=O [SQ-22, 3-(7-Phenylheptylamino)-4-(pyridin-4-yl-amino)-cyclobut-3-ene-1,2-dione]",> 20,> 50,> 50,> 50,> 80,> 80
